Laboratory results reported in PubChem BioAssay (NCI).
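48-hour exposure; five concentrations; linearly interpolated endpoints. TGI: total growth inhibition.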

How the values were obtained:
Assay in all cases: growth of human tumour cells (NCI), 48 h
HS 578T breast = system: HS 578T breast
OVCAR-5 ovarian = system: OVCAR-5 ovarian
OVCAR-4 ovarian = system: OVCAR-4 ovarian
SK-OV-3 ovarian = system: SK-OV-3 ovarian
MCF7 breast = system: MCF7 breast
SN12C renal = system: SN12C renal
TK-10 renal = system: TK-10 renal
SR leukemia = system: SR leukemia
NCI-H460 lung = system: NCI-H460 lung
OVCAR-8 ovarian = system: OVCAR-8 ovarian
786-0 renal = system: 786-0 renal
K-562 leukemia = system: K-562 leukemia
LOX IMVI melanoma = system: LOX IMVI melanoma
HOP-92 NSCLC = system: HOP-92 NSCLC
SK-MEL-28 melanoma = system: SK-MEL-28 melanoma
SNB-78 CNS = system: SNB-78 CNS
HCT-15 colon = system: HCT-15 colon
HL-60(TB) leukemia = system: HL-60(TB) leukemia
SK-MEL-2 melanoma = system: SK-MEL-2 melanoma
UACC-257 melanoma = system: UACC-257 melanoma
DMS 273 small cell lung = system: DMS 273 small cell lung
NCI-H522 lung = system: NCI-H522 lung
CCRF-CEM leukemia = system: CCRF-CEM leukemia
NCI/ADR-RES ovarian = system: NCI/ADR-RES ovarian
CAKI-1 renal = system: CAKI-1 renal
NCI-H23 lung = system: NCI-H23 lung
M19-MEL melanoma = system: M19-MEL melanoma
IGROV1 ovarian = system: IGROV1 ovarian
LXFL 529 NSCLC = system: LXFL 529 NSCLC
SK-MEL-5 melanoma = system: SK-MEL-5 melanoma
HT29 colon = system: HT29 colon
M14 melanoma = system: M14 melanoma
KM20L2 colon = system: KM20L2 colon
OVCAR-3 ovarian = system: OVCAR-3 ovarian
HCT-116 colon = system: HCT-116 colon
PC-3 prostate = system: PC-3 prostate
SNB-75 CNS = system: SNB-75 CNS
EKVX NSCLC = system: EKVX NSCLC
DLD-1 colon = system: DLD-1 colon
MALME-3M melanoma = system: MALME-3M melanoma
UO-31 renal = system: UO-31 renal
U251 CNS = system: U251 CNS
RPMI-8226 leukemia = system: RPMI-8226 leukemia
MDA-N = system: MDA-N
MDA-MB-231 breast = system: MDA-MB-231 breast
T-47D breast = system: T-47D breast
BT-549 breast = system: BT-549 breast
RXF-631 renal = system: RXF-631 renal
DU-145 prostate = system: DU-145 prostate
COLO 205 colon = system: COLO 205 colon
HCC-2998 colon = system: HCC-2998 colon
HOP-62 NSCLC = system: HOP-62 NSCLC
A549 NSCLC = system: A549 NSCLC
RXF 393 renal = system: RXF 393 renal
SF-268 CNS = system: SF-268 CNS
ACHN renal = system: ACHN renal
DMS 114 small cell lung = system: DMS 114 small cell lung
KM12 colon = system: KM12 colon
UACC-62 melanoma = system: UACC-62 melanoma
A498 renal = system: A498 renal
NCI-H226 lung = system: NCI-H226 lung
MOLT-4 leukemia = system: MOLT-4 leukemia
SF-539 CNS = system: SF-539 CNS
SW-620 colon = system: SW-620 colon
SNB-19 CNS = system: SNB-19 CNS
SF-295 CNS = system: SF-295 CNS
MDA-MB-435 = system: MDA-MB-435

In the case of `COC1=CC(=O)c2c(ccc3ncnc(N)c23)C1=O`, the TGI (HS 578T breast) is reported as 7.52 µM, the TGI (OVCAR-5 ovarian) is reported as 3.81 µM and the TGI (OVCAR-4 ovarian) is reported as 1.28 µM. It also gave a TGI (SK-OV-3 ovarian) of 16.3 µM, a TGI (MCF7 breast) of 4.12 µM and a TGI (SN12C renal) of 3.42 µM. For the same compound, the TGI (TK-10 renal) was 8.75 µM, the TGI (SR leukemia) was 0.631 µM and the TGI (NCI-H460 lung) was 12.6 µM. The TGI (OVCAR-8 ovarian) was 7.59 µM, the TGI (786-0 renal) was 3.35 µM and the TGI (K-562 leukemia) was 1.58 µM. The TGI (LOX IMVI melanoma) was 2.68 µM, the TGI (HOP-92 NSCLC) was 4 µM and the TGI (SK-MEL-28 melanoma) was 4.94 µM. The TGI (SNB-78 CNS) was 4.89 µM, the TGI (HCT-15 colon) was 4.13 µM and the TGI (HL-60(TB) leukemia) was 1.49 µM. For the same compound, the TGI (SK-MEL-2 melanoma) was 7.08 µM, the TGI (UACC-257 melanoma) was 3.69 µM and the TGI (DMS 273 small cell lung) was 10.7 µM. It also gave a TGI (NCI-H522 lung) of 5.62 µM, a TGI (CCRF-CEM leukemia) of 1.95 µM and a TGI (NCI/ADR-RES ovarian) of 6.39 µM. The TGI (CAKI-1 renal) was 3.27 µM, the TGI (NCI-H23 lung) was 3.76 µM and the TGI (M19-MEL melanoma) was 3.14 µM. The TGI (IGROV1 ovarian) was 3.41 µM, the TGI (LXFL 529 NSCLC) was 3.2 µM and the TGI (SK-MEL-5 melanoma) was 3.12 µM. For the same compound, the TGI (HT29 colon) was 4.44 µM, the TGI (M14 melanoma) was 3.38 µM and the TGI (KM20L2 colon) was 34.7 µM. It also gave a TGI (OVCAR-3 ovarian) of 3.03 µM, a TGI (HCT-116 colon) of 3.33 µM and a TGI (PC-3 prostate) of 6.53 µM. For the same compound, the TGI (SNB-75 CNS) was 6.62 µM, the TGI (EKVX NSCLC) was 4.03 µM and the TGI (DLD-1 colon) was 4.44 µM. The TGI (MALME-3M melanoma) was 5.43 µM, the TGI (UO-31 renal) was 5.09 µM and the TGI (U251 CNS) was 3.39 µM. The TGI (RPMI-8226 leukemia) was 3.62 µM, the TGI (MDA-N) was 0.889 µM and the TGI (MDA-MB-231 breast) was 4.8 µM. It also gave a TGI (T-47D breast) of 3.42 µM, a TGI (BT-549 breast) of 3.2 µM and a TGI (RXF-631 renal) of 16.4 µM. The TGI (DU-145 prostate) was 3.34 µM, the TGI (COLO 205 colon) was 6.77 µM and the TGI (HCC-2998 colon) was 15.1 µM. The TGI (HOP-62 NSCLC) was 6.54 µM, the TGI (A549 NSCLC) was 8.75 µM and the TGI (RXF 393 renal) was 3.3 µM. For the same compound, the TGI (SF-268 CNS) was 6.72 µM, the TGI (ACHN renal) was 3.16 µM and the TGI (DMS 114 small cell lung) was 3.43 µM. The TGI (KM12 colon) was 11.3 µM, the TGI (UACC-62 melanoma) was 3.42 µM and the TGI (A498 renal) was 3.9 µM. The TGI (NCI-H226 lung) was 4.6 µM, the TGI (MOLT-4 leukemia) was 1.5 µM and the TGI (SF-539 CNS) was 3.41 µM. The TGI (SW-620 colon) was 4.03 µM, the TGI (SNB-19 CNS) was 5.47 µM and the TGI (SF-295 CNS) was 6.76 µM. For the same compound, the TGI (MDA-MB-435) was 0.646 µM.
